Measured values taken from patent publication US11198710B2, “Transgenic plant having herbicide resistance” (priority 2016, dated 2021).
Like-named read-outs stand apart in the source and are kept apart here.

Key:
ZmQ9FQD1 = test: Pyroxasulfone metabolizing activity based on the growth of cultured rice cells in medium; format: cell-based, maize; conditions: cultured rice cells with ZmQ9FQD1 gene; N6D medium, 100 μM (10^−4M) pyroxasulfone, 2 weeks
Method: (§1) The 2 lineages of cultured rice cells comprising the maize GST genes introduced thus prepared and the KLB-279 cultured transgenic rice cells (the control cells) were seeded on N6D medium, and pyroxasulfone resistance was inspected based on the growth of cultured rice cells 2 weeks later. Pyroxasulfone was subjected to the test as an acetone solution, the final acetone concentration to be added to the medium was 1%, and the final drug concentration was 10^−4 M.

ZmB8A3K0 = test: as above; format: cell-based, maize; conditions: cultured rice cells with ZmB8A3K0 gene; N6D medium, 100 μM (10^−4M) pyroxasulfone, 2 weeks
Method: as §1

[1] = system: Arabidopsis thaliana plant comprising the TaQ8GTC0 gene introduced therein; test: Sensitivity of Arabidopsis thaliana comprising the TaQ8GTC0 gene to herbicides on MS agar medium; format: in vivo; conditions: for growth of the Arabidopsis thaliana plant comprising the TaQ8GTC0 gene: KLB-718 1-1-5, 22° C.
Method: A medium was prepared as described below, so as to examine the pyroxasulfone resistance of the Arabidopsis thaliana plant comprising the TaQ8GTC0 gene introduced therein. At the outset, the Murashige-Skoog (MS) media (1 bag), thiamin hydrochloride (3 mg), nicotinic acid (5 mg), pyridoxin hydrochloride (0.5 mg), and sucrose (10 g) were added into a 1-liter beaker, a pH was adjusted to 5.7, the volume of the content was adjusted to 1 liter, and 8 g (0.8%) of agar was added. The resultant was autoclaved and cooled to room temperature, and pyroxasulfone (an acetone solution) was added thereto. A 30-ml fraction thereof was fractionated into a No. 2 square plate to prepare an MS medium containing pyroxasulfone at a given concentration.
Pyroxasulfone sensitivity of transgenic Arabidopsis thaliana plants was tested with the use of the medium prepared above as described below. A necessary amount of Arabidopsis thaliana dry seeds was agitated in 70% ethanol for 2 minutes and in hypochlorous acid containing 0.02% Triton-X-100 for 15 minutes, followed by washing with sterile water 10 times. Subsequently, the seeds were suspended in 1 ml of the autoclaved 0.1% agar solution, the suspension was thoroughly mixed to prepare a homogeneous solution, and a total of 30 seeds were each placed on the medium surface. The resultant was sealed with a surgical tape, allowed to stand at 4° C. for 2 days, and then transferred to 22° C. for germination.
On the basis of the concentrations above, sensitivity of the Arabidopsis thaliana plant comprising the TaQ8GTC0 gene introduced therein to VLCFAE-inhibiting herbicides was examined. The results are show in FIGS. 13 and 14. The photographs shown in FIGS. 13 and 14 were taken after the plants were grown at 22° C. for 14 days.

wild-type rice = test: Pyroxasulfone resistance test, wild-type rice, gellan gum medium, plant height; format: in vivo; conditions: Oryza sativa, shoot growth, 4 to 5 days, Probit method, read-out: I50
Method: Hoagland's mix and 3 g of gellan gum were suspended in 1 liter of distilled water and thoroughly dissolved therein by heating in a microwave. A fraction of the resultant (15 ml) was injected into a tubular bottle before it was cooled (30 ml was injected into the plate). The herbicide was simultaneously added at the time of injection of the gellan gum medium into the tubular bottle or plate, followed by thorough mixing. Rice hulls were soaked in a 50-fold diluted sodium hypochlorite solution (antiformin) (Wako) for approximately 20 minutes and then thoroughly washed with water. Sterilized seeds were soaked in distilled water and allowed to stand at 27° C. for germination (for approximately 2 days). Germinating seeds were softly planted in the gellan gum medium (plate) containing 0.25 μM BS. […] Thereafter, rice seeds that were determined to have BS resistance with the use of root elongation as the indicator were transferred to gellan gum media containing pyroxasulfone (tubal bottles) at the final concentrations of 10^−8, 10^−7, 10^−6, and 10^−5M, respectively. […] These samples were grown at 27° C. under fluorescent light illumination (14 hours of a light period and 10 hours of a dark period) for 4 to 5 days, and the plant heights were then measured. […]

[2] = system: rice plants comprising the TaQ8GTC0 gene introduced therein; test: Herbicide resistance test of rice plants comprising the TaQ8GTC0 gene, gellan gum medium, plant height; format: in vivo; conditions: for IC50: Oryza sativa, read-out: I50
Method: Hoagland's mix and 3 g of gellan gum were suspended in 1 liter of distilled water and thoroughly dissolved therein by heating in a microwave. A fraction of the resultant (15 ml) was injected into a tubular bottle before it was cooled (30 ml was injected into the plate). The herbicide was simultaneously added at the time of injection of the gellan gum medium into the tubular bottle or plate, followed by thorough mixing. Rice hulls were soaked in a 50-fold diluted sodium hypochlorite solution (antiformin) (Wako) for approximately 20 minutes and then thoroughly washed with water. Sterilized seeds were soaked in distilled water and allowed to stand at 27° C. for germination (for approximately 2 days). Germinating seeds were softly planted in the gellan gum medium (plate) containing 0.25 μM BS. These samples, together with a beaker filled with distilled water, were placed in a transparent case, which was then covered with a clear plastic wrap. These samples were grown at 27° C. under fluorescent light illumination (14 hours of a light period and 10 hours of a dark period) for 2 days. Thereafter, rice seeds that were determined to have BS resistance with the use of root elongation as the indicator were transferred to gellan gum media containing pyroxasulfone (tubal bottles) at the final concentrations of 10^−8, 10^−7, 10^−6, and 10^−5M, respectively. Subsequently, these samples, together with a beaker filled with distilled water, were placed in a transparent case, which was then covered with a clear plastic wrap. These samples were grown at 27° C. under fluorescent light illumination (14 hours of a light period and 10 hours of a dark period) for 4 to 5 days, and the plant heights were then measured. Inhibition of shoot growth was determined by comparison to control plants grown in the absence of pyroxasulfone and the concentration for required 50% inhibition (IC50) was determined by the Probit method.
Resistance of rice plants comprising the TaQ8GTC0 gene introduced therein to VLCFAE-inhibiting herbicides was tested in the same manner as with the pyroxasulfone resistance test described above.
FIGS. 7-1 to 7-6 show the results. In FIGS. 7-1 to 7-6, the concentration of 0 μM, the minimal concentration shown in Table 4 (×1), the concentration 4 times higher than the minimal concentration shown in Table 4 (×4), and the concentration 16 times higher than the minimal concentration shown in Table 4 (×16) are shown successively from left to right.

## Cn1nc(C(F)(F)F)c(CS(=O)(=O)C2=NOC(C)(C)C2)c1OC(F)F [Pyroxasulfone, 3-[5-(difluoromethoxy)-1-methyl-3-(trifluoromethyl)pyrazol-4-ylmethylsulfonyl]-4,5-dihydro-5,5-dimethyl-1,2-oxazole]
ZmQ9FQD1
  pyroxasulfone metabolizing activity (growth of cultured rice cells): no pyroxasulfone metabolizing activity
ZmB8A3K0
  pyroxasulfone metabolizing activity (growth of cultured rice cells): no pyroxasulfone metabolizing activity
[1]; KLB-718 1-1-5, concentrations of Table 5, 22° C., 14 days
  sensitivity of the Arabidopsis thaliana plant comprising the TaQ8GTC0 gene to VLCFAE-inhibiting herbicides: strong resistance
[1]; all 7 lines used in the test
  pyroxasulfone resistance relative to wild-type (Columbia-0): at least 10 times
[1]; pyroxasulfone 1 μM, 14 days
  growth of the Arabidopsis thaliana plant comprising the TaQ8GTC0 gene: in the same manner as with the Control
[1]; pyroxasulfone 10 μM, 14 days
  growth of the Arabidopsis thaliana plant comprising the TaQ8GTC0 gene: sufficiently grew
wild-type rice
  IC50: 39 nM
[2]; 16 lines among 18 lines used in the test
  pyroxasulfone resistance relative to wild-type plants: ≥ 10 times
[2]; lineage #1-3
  IC50: 1140 nM
  Pyroxasulfone resistance (ratio of IC50 of transformed rice to IC50 of wild-type rice): 29
[2]; lineage #1-4
  IC50: 1310 nM
  Pyroxasulfone resistance (ratio of IC50 of transformed rice to IC50 of wild-type rice): 33
[2]; lineage #1-7
  IC50: 969 nM
  Pyroxasulfone resistance (ratio of IC50 of transformed rice to IC50 of wild-type rice): 25
[2]; lineage #1-10
  IC50: 510 nM
  Pyroxasulfone resistance (ratio of IC50 of transformed rice to IC50 of wild-type rice): 13
[2]; lineage #2-6
  IC50: 968 nM
  Pyroxasulfone resistance (ratio of IC50 of transformed rice to IC50 of wild-type rice): 25
[2]; lineage #2-9
  IC50: 1090 nM
  Pyroxasulfone resistance (ratio of IC50 of transformed rice to IC50 of wild-type rice): 28
[2]; lineage #3-4
  IC50: 1720 nM
  Pyroxasulfone resistance (ratio of IC50 of transformed rice to IC50 of wild-type rice): 44
[2]; lineage #3-9
  IC50: 1010 nM
  Pyroxasulfone resistance (ratio of IC50 of transformed rice to IC50 of wild-type rice): 26
[2]; lineage #3-12
  IC50: 67 nM
  Pyroxasulfone resistance (ratio of IC50 of transformed rice to IC50 of wild-type rice): 2
[2]; lineage #3-13
  IC50: 13800 nM
  Pyroxasulfone resistance (ratio of IC50 of transformed rice to IC50 of wild-type rice): 353
[2]; lineage #4-1
  IC50: 496 nM
  Pyroxasulfone resistance (ratio of IC50 of transformed rice to IC50 of wild-type rice): 13
[2]; lineage #4-3
  IC50: 4320 nM
  Pyroxasulfone resistance (ratio of IC50 of transformed rice to IC50 of wild-type rice): 111
[2]; lineage #4-7
  IC50: 7150 nM
  Pyroxasulfone resistance (ratio of IC50 of transformed rice to IC50 of wild-type rice): 183
[2]; lineage #4-10
  IC50: 2120 nM
  Pyroxasulfone resistance (ratio of IC50 of transformed rice to IC50 of wild-type rice): 54
[2]; lineage #4-13
  IC50: 3850 nM
  Pyroxasulfone resistance (ratio of IC50 of transformed rice to IC50 of wild-type rice): 99
[2]; lineage #4-14
  IC50: 45 nM
  Pyroxasulfone resistance (ratio of IC50 of transformed rice to IC50 of wild-type rice): 1
[2]; lineage #5-1
  IC50: 968 nM
  Pyroxasulfone resistance (ratio of IC50 of transformed rice to IC50 of wild-type rice): 25
[2]; lineage #5-11
  IC50: 983 nM
  Pyroxasulfone resistance (ratio of IC50 of transformed rice to IC50 of wild-type rice): 25
[2]; lineage #3-13, listed as pyroxasulfone
  Pyroxasulfone resistance (ratio of IC50 of transformed rice to IC50 of wild-type rice): approximately 350
[2]; lineage #3-13, minimal concentration (×1), ×4 and ×16 of Table 4
  growth of rice plants comprising the TaQ8GTC0 gene on herbicide medium: the growth thereof was not affected at the maximal test concentration
[2]; lineage #4-7, no data disclosed
  resistance to pyroxasulfone: high level of resistance
